In PubChem BioAssay (NCI):
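Exposure lasted 48 hours, with cells grown in 96-well plates and compounds tested at five concentrations. Definition used: TGI = concentration required for complete inhibition of growth.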

Columns and labels:
Test in all cases: inhibition of tumour cell growth, NCI panel, 48 h
SNB-19 CNS = tested on: SNB-19 CNS
RPMI-8226 leukemia = tested on: RPMI-8226 leukemia
HOP-62 NSCLC = tested on: HOP-62 NSCLC
MALME-3M melanoma = tested on: MALME-3M melanoma
SW-620 colon = tested on: SW-620 colon
RXF 393 renal = tested on: RXF 393 renal
NCI-H522 lung = tested on: NCI-H522 lung
SF-268 CNS = tested on: SF-268 CNS
A549 NSCLC = tested on: A549 NSCLC
U251 CNS = tested on: U251 CNS
UACC-62 melanoma = tested on: UACC-62 melanoma
NCI-H23 lung = tested on: NCI-H23 lung
SK-OV-3 ovarian = tested on: SK-OV-3 ovarian
HCC-2998 colon = tested on: HCC-2998 colon
KM20L2 colon = tested on: KM20L2 colon
786-0 renal = tested on: 786-0 renal
OVCAR-5 ovarian = tested on: OVCAR-5 ovarian
SNB-78 CNS = tested on: SNB-78 CNS
HL-60(TB) leukemia = tested on: HL-60(TB) leukemia
SF-539 CNS = tested on: SF-539 CNS
RXF-631 renal = tested on: RXF-631 renal
MOLT-4 leukemia = tested on: MOLT-4 leukemia
HCT-116 colon = tested on: HCT-116 colon
ACHN renal = tested on: ACHN renal
SK-MEL-2 melanoma = tested on: SK-MEL-2 melanoma
M19-MEL melanoma = tested on: M19-MEL melanoma
HOP-92 NSCLC = tested on: HOP-92 NSCLC
HCT-15 colon = tested on: HCT-15 colon
DLD-1 colon = tested on: DLD-1 colon
SK-MEL-5 melanoma = tested on: SK-MEL-5 melanoma
TK-10 renal = tested on: TK-10 renal
OVCAR-8 ovarian = tested on: OVCAR-8 ovarian
DMS 273 small cell lung = tested on: DMS 273 small cell lung
IGROV1 ovarian = tested on: IGROV1 ovarian
NCI-H460 lung = tested on: NCI-H460 lung
UO-31 renal = tested on: UO-31 renal
K-562 leukemia = tested on: K-562 leukemia
CCRF-CEM leukemia = tested on: CCRF-CEM leukemia
CAKI-1 renal = tested on: CAKI-1 renal
LOX IMVI melanoma = tested on: LOX IMVI melanoma
OVCAR-4 ovarian = tested on: OVCAR-4 ovarian
LXFL 529 NSCLC = tested on: LXFL 529 NSCLC
M14 melanoma = tested on: M14 melanoma
KM12 colon = tested on: KM12 colon
SNB-75 CNS = tested on: SNB-75 CNS
OVCAR-3 ovarian = tested on: OVCAR-3 ovarian
COLO 205 colon = tested on: COLO 205 colon
SK-MEL-28 melanoma = tested on: SK-MEL-28 melanoma
EKVX NSCLC = tested on: EKVX NSCLC
A498 renal = tested on: A498 renal
UACC-257 melanoma = tested on: UACC-257 melanoma
HT29 colon = tested on: HT29 colon
SR leukemia = tested on: SR leukemia
HOP-18 NSCLC = tested on: HOP-18 NSCLC
SN12C renal = tested on: SN12C renal
DMS 114 small cell lung = tested on: DMS 114 small cell lung
SF-295 CNS = tested on: SF-295 CNS
NCI-H226 lung = tested on: NCI-H226 lung
XF 498 CNS = tested on: XF 498 CNS

Measured: TGI

CCc1ccc(Cc2ccc(CC)c(NC(=O)C(=O)C3NC(=S)NC3=O)c2CC)c(CC)c1NC(=O)C(=O)C1NC(=S)NC1=O (stereo not given)
not listed: HT29 colon | SR leukemia | HOP-18 NSCLC | SN12C renal | DMS 114 small cell lung | SF-295 CNS | NCI-H226 lung | XF 498 CNS
> 100 µM: all other assays above

Cc1[nH]c2ccccc2c1C1=NO/C(=N\O)C(c2c(C)[nH]c3ccccc23)C1 (stereo not given)
> 78.7 µM: SR leukemia
58.9 µM: HT29 colon
69.6 µM: MOLT-4 leukemia
50.5 µM: KM20L2 colon
> 80.3 µM: SF-539 CNS
> 80.5 µM: UO-31 renal
87.1 µM: RXF 393 renal
> 67.6 µM: NCI-H460 lung
> 91.1 µM: ACHN renal
62.7 µM: UACC-62 melanoma
64.6 µM: HOP-62 NSCLC
> 31.6 µM: SK-MEL-5 melanoma
> 78.5 µM: HCT-116 colon | HOP-92 NSCLC
54 µM: HL-60(TB) leukemia
> 89.6 µM: M14 melanoma
41 µM: COLO 205 colon
70.7 µM: OVCAR-3 ovarian
not listed: NCI-H522 lung | LOX IMVI melanoma
> 100 µM: all other assays above

O=C(CC1(O)C(=O)Nc2ccc([N+](=O)[O-])cc21)c1ccncc1 (stereo not given)
82.8 µM: DMS 114 small cell lung
56.5 µM: HL-60(TB) leukemia
71.5 µM: NCI-H522 lung
54.7 µM: RXF-631 renal
70.1 µM: MOLT-4 leukemia
63.1 µM: M19-MEL melanoma
34.2 µM: XF 498 CNS
29.3 µM: LOX IMVI melanoma
68.6 µM: RPMI-8226 leukemia
32.9 µM: UACC-257 melanoma
64.4 µM: RXF 393 renal
66.2 µM: MALME-3M melanoma
65 µM: OVCAR-3 ovarian
47.9 µM: SW-620 colon
75.1 µM: K-562 leukemia
40.9 µM: OVCAR-4 ovarian
66.1 µM: U251 CNS
73.1 µM: NCI-H23 lung
98.8 µM: SNB-75 CNS
not listed: HOP-92 NSCLC | SK-MEL-5 melanoma | DMS 273 small cell lung | IGROV1 ovarian | CAKI-1 renal | LXFL 529 NSCLC | SR leukemia
> 100 µM: all other assays above
